{"source": "patent US20140093555A1", "about": "“PATCH PREPARATION CONTAINING AMINE OXIDE” (Nitto Denko Corporation, priority 2012, published 2014)", "test_system": "skin isolated from a hairless mouse", "experiment": "Skin permeability test (patch on isolated hairless mouse skin, permeation cell, PBS(-) receptor, HPLC)", "assay_type": "in vitro ADME", "conditions": "statement in words, Tables 3 and 4", "procedure": "To examine transdermal absorbability of the drug, the obtained patch preparation was subjected to a skin permeability test.\nA patch preparation was cut into a circle having a diameter of 6 mmφ, adhered to the stratum corneum side of a skin isolated from a hairless mouse, mounted on a cell for skin permeation experiment (effective area 9 mmφ) such that the dermic layer side was a receptor phase, and a skin permeation experiment was conducted. As a receptor solution, a deaerated PBS(−) solution (phosphate buffered saline) was used.", "data": [{"compound": "CCOC(=O)C1=C(COCCN)NC(C)=C(C(=O)OC)C1c1ccccc1Cl", "note": "(stereo not shown) [amlodipine besilate]", "values": [{"measurement": "skin permeability of the drug", "value": "low skin permeability"}]}]}
